In ChEMBL document CHEMBL1141033, “First-in-class pan caspase inhibitor developed for the treatment of liver disease” (J Med Chem, 2005):

Assays:
[1] = biological target: T1, Caspase-6 (Homo sapiens) (UniProt P55212); test: Inhibitory activity against Caspase-6
T1 sequence (whole entry): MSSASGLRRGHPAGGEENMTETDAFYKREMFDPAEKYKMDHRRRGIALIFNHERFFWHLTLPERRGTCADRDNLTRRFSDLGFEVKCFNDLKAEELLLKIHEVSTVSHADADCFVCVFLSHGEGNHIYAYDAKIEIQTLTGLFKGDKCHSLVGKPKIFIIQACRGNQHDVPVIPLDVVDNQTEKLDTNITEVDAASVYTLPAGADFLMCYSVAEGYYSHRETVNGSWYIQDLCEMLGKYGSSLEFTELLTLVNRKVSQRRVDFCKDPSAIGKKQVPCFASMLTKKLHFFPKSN

[2] = system: Jurkat; test: Inhibitory concentration against JFas cells; type: functional, cell-based; conditions: Homo sapiens
[3] = biological target: T2, Caspase-3 (Homo sapiens) (UniProt P42574); test: Inhibitory activity against Caspase-3
T2 sequence (whole entry): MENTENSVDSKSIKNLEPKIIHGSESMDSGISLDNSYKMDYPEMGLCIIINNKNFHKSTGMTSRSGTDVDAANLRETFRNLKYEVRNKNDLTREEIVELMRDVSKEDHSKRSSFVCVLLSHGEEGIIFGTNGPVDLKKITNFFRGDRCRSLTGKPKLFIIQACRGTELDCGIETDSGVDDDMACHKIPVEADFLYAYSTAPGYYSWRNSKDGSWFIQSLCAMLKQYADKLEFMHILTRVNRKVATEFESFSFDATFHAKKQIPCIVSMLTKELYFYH

[4] = biological target: Caspase-8 (Homo sapiens) (UniProt Q14790); test: Inhibitory activity against Caspase-8
Caspase-8 (Homo sapiens), sequence (Q14790 217-374 limits assumed): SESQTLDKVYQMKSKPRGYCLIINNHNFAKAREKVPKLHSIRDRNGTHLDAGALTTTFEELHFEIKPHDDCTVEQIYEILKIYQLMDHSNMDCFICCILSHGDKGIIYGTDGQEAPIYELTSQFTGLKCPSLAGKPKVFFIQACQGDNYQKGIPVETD
Caspase-8 (Homo sapiens), sequence (Q14790 385-479 limits assumed): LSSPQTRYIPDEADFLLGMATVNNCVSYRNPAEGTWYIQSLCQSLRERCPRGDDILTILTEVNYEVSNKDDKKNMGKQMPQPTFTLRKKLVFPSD

[5] = biological target: T3, Caspase-1 (Mus musculus) (UniProt P29452); test: Inhibitory activity against murine Caspase-1
T3 sequence (whole entry): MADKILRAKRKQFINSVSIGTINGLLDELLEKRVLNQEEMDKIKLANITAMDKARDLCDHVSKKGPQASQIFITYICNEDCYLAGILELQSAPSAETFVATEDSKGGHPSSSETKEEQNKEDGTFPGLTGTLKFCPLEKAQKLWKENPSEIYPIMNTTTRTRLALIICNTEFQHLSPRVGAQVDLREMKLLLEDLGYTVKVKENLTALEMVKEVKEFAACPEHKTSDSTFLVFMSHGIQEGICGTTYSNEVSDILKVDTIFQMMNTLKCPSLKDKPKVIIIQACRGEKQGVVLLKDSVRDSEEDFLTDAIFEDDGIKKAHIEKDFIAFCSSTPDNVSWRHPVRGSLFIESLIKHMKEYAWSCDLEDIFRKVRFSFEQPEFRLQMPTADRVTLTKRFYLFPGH

[6] = system: Mus musculus; test: Effective dose required for pancaspase inhibition in a-Fas liver upon i.p. administration; range = 0.06-0.12; conditions: ip
[7] = system: THP-1; test: Inhibitory concentration against THP-1 cells; type: functional, cell-based; conditions: Homo sapiens
[8] = system: Mus musculus; test: Effective dose required for pancaspase inhibition in a-Fas liver upon i.p. administration; conditions: ip
[9] = system: Rattus norvegicus; test: Effective dose required for pancaspase inhibition in a-Fas liver upon i.p. administration; range = 0.03-0.05; type: functional; conditions: ip
[10] = system: Mus musculus; test: Effective dose required for pancaspase inhibition in a-Fas liver upon i.p. administration; range = 0.02-0.16; conditions: ip
[11] = system: Rattus norvegicus; test: Effective dose required for pancaspase inhibition in a-Fas liver after an i.p. administration; type: functional; conditions: ip
[12] = system: Mus musculus; test: Effective dose required for pancaspase inhibition in a-Fas liver upon i.p. administration; range = 0.02-0.11; conditions: ip

Row | SMILES | k3/Ki [1] [M⁻¹ s⁻¹] | IC50 [2] [nM] | k3/Ki [3] [M⁻¹ s⁻¹] | k3/Ki [4] [M⁻¹ s⁻¹] | k3/Ki [5] [M⁻¹ s⁻¹] | IC50 [7] [nM] | ED50 [6] [mg/kg] | ED50 [8] [mg/kg] | ED50 [9] [mg/kg] | ED50 [10] [mg/kg] | ED50 [11] [mg/kg] | ED50 [12] [mg/kg]
1 | C[C@H](NC(=O)C(=O)Nc1ccccc1C(C)(C)C)C(=O)N[C@@H](CC(=O)O)C(=O)COc1c(F)c(F)cc(F)c1F [EMRICASAN] | 58700 | 25 | 75700 | 2.94e+06 | 689000 | 270 | 0.08 |  |  |  |  | 
2 | C[C@H](NC(=O)C(=O)Nc1ccc2c(c1)CCC2)C(=O)N[C@@H](CC(=O)O)C(=O)COc1c(F)c(F)cc(F)c1F | 31900 | 200 | 42000 | 204000 | 270000 | 120 |  |  |  |  |  | 
3 | C[C@H](NC(=O)C(=O)Nc1ccccc1C(C)(C)C)C(=O)N[C@@H](CC(=O)O)C(=O)COP(=O)(c1ccccc1)c1ccccc1 | 52100 | 81 | 99100 | 2.01e+06 | 2.16e+06 | 9090 |  | 0.14 |  |  |  | 
4 | C[C@H](NC(=O)C(=O)Nc1ccccc1C(C)(C)C)C(=O)N[C@@H](CC(=O)O)C(=O)COC(=O)c1c(Cl)cccc1Cl | 105000 | 143 | 236000 | 4300 | 8.33e+06 | 11800 |  | 45.8 |  |  |  | 
5 | C[C@H](NC(=O)C(=O)Nc1cc(C(C)(C)C)ccc1C(C)(C)C)C(=O)N[C@@H](CC(=O)O)C(=O)COP(=O)(c1ccccc1)c1ccccc1 | 7640 | 109 | 18300 | 970000 | 2.71e+06 | 5870 |  | 0.5 |  |  |  | 
6 | C[C@H](NC(=O)C(=O)Nc1ccccc1Cl)C(=O)N[C@@H](CC(=O)O)C(=O)COC(=O)c1c(Cl)cccc1Cl | 44000 | 1170 | 256000 | 109 | 8.31e+06 | 320 |  |  |  |  |  | 
7 | C[C@H](NC(=O)C(=O)Nc1ccccc1Cl)C(=O)N[C@@H](CC(=O)O)C(=O)COP(=O)(c1ccccc1)c1ccccc1 | 37100 | 68 | 211000 | 1.41e+06 | 3.96e+06 | 1040 |  |  | 0.04 |  |  | 
8 | C[C@H](NC(=O)C(=O)Nc1ccccc1C(F)(F)F)C(=O)N[C@@H](CC(=O)O)C(=O)COc1c(F)c(F)cc(F)c1F | 45600 | 61 | 309000 | 332000 | 9.95e+06 | 190 |  |  |  |  |  | 
9 | C[C@H](NC(=O)C(=O)Nc1ccccc1-c1ccccc1)C(=O)N[C@@H](CC(=O)O)C(=O)COC(=O)c1c(Cl)cccc1Cl | 61000 | 390 | 29000 | 342000 | 7.28e+06 | 4360 |  |  |  |  |  | 
10 | C[C@H](NC(=O)C(=O)Nc1ccccc1-c1ccccc1)C(=O)N[C@@H](CC(=O)O)C(=O)COP(=O)(c1ccccc1)c1ccccc1 | 22700 | 3940 | 28400 | 1.57e+06 | 5e+06 | 4120 |  |  |  |  | 0.44 | 
11 | C[C@H](NC(=O)C(=O)Nc1ccccc1-c1ccc[nH]1)C(=O)N[C@@H](CC(=O)O)C(=O)COc1c(F)c(F)cc(F)c1F | 7750 | 56 | 12000 | 1.2e+06 | 1.52e+06 | > 32000 |  |  |  |  |  | 
12 | Cc1c(C(=O)N[C@H](C(=O)NC(CC(=O)O)C(=O)CF)C(C)C)n(C)c2ccccc12 (stereo partly drawn) | 98000 | 1300 | 19000 | 34400 | 10100 | 10000 |  |  |  |  |  | 
13 | C[C@H](NC(=O)C(=O)Nc1ccccc1Oc1ccccc1)C(=O)N[C@@H](CC(=O)O)C(=O)COc1c(F)c(F)cc(F)c1F | 5900 | 530 | 51000 | 154000 | 960000 | 800 |  |  |  |  |  | 
14 | C[C@H](NC(=O)C(=O)Nc1cc(C(C)(C)C)ccc1C(C)(C)C)C(=O)N[C@@H](CC(=O)O)C(=O)COc1c(F)c(F)cc(F)c1F | 15400 | 62 | 38200 | 365000 | 1.63e+07 | 1840 |  |  |  |  |  | 0.05
15 | O=C(O)CC(NC(=O)[C@@H]1Cc2cccc3c2N1C(=O)[C@@H](NC(=O)OCc1ccccc1)CC3)C(=O)CF (stereo partly drawn) | 25000 | 510 | 960000 | 98000 | 1.2e+07 | 300 |  |  |  |  |  | 
16 | C[C@H](NC(=O)C(=O)NC1CCCCC1)C(=O)N[C@@H](CC(=O)O)C(=O)COc1c(F)c(F)cc(F)c1F | 268 | 150 | 21000 | 2800 | 390000 | 500 |  |  |  |  |  | 
17 | C[C@H](NC(=O)C(=O)Nc1cc(C(C)(C)C)ccc1C(C)(C)C)C(=O)N[C@@H](CC(=O)O)C(=O)COC(=O)c1c(Cl)cccc1Cl | 6400 | 1380 | 30000 | 68 | 4.02e+06 | 3130 |  |  |  |  |  | 

The next lines start with results.

Row | k3/Ki [1] [M⁻¹ s⁻¹] | IC50 [2] [nM] | k3/Ki [3] [M⁻¹ s⁻¹] | k3/Ki [4] [M⁻¹ s⁻¹] | k3/Ki [5] [M⁻¹ s⁻¹] | IC50 [7] [nM] | SMILES | ED50 [6] [mg/kg] | ED50 [8] [mg/kg] | ED50 [9] [mg/kg] | ED50 [10] [mg/kg] | ED50 [11] [mg/kg] | ED50 [12] [mg/kg]
18 | 31700 | 670 | 25400 | 65300 | 127000 | 140 | C[C@H](NC(=O)C(=O)Nc1ccccc1)C(=O)N[C@@H](CC(=O)O)C(=O)COc1c(F)c(F)cc(F)c1F |  |  |  |  |  | 
19 | 23700 | 1040 | 44000 | 201000 | 468000 | 200 | C[C@H](NC(=O)C(=O)Nc1ccccn1)C(=O)N[C@@H](CC(=O)O)C(=O)COc1c(F)c(F)cc(F)c1F |  |  |  |  |  | 
20 | 33600 | 10 | 44400 | 617000 | 1.97e+06 | 540 | C[C@H](NC(=O)C(=O)Nc1ccccc1Cc1ccccc1)C(=O)N[C@@H](CC(=O)O)C(=O)COc1c(F)c(F)cc(F)c1F |  |  |  |  |  | 
21 | 37100 | 300 | 35500 | 32500 | 674000 | 160 | C[C@H](NC(=O)C(=O)NCc1ccccc1)C(=O)N[C@@H](CC(=O)O)C(=O)COc1c(F)c(F)cc(F)c1F |  |  |  |  |  | 
22 | 19800 | 160 | 70000 | 114000 | 1.14e+06 | 160 | C[C@H](NC(=O)C(=O)Nc1ccccc1F)C(=O)N[C@@H](CC(=O)O)C(=O)COc1c(F)c(F)cc(F)c1F |  |  |  |  |  | 
23 | 26000 | 64 | 219000 | 228000 | 1.34e+07 | 540 | C[C@H](NC(=O)C(=O)Nc1ccccc1Cl)C(=O)N[C@@H](CC(=O)O)C(=O)COc1c(F)c(F)cc(F)c1F |  |  |  | 0.05 |  | 
24 | 18500 | 86 | 57000 | 460000 | 1.7e+06 | 60 | C[C@H](NC(=O)C(=O)Nc1cccc2ccccc12)C(=O)N[C@@H](CC(=O)O)C(=O)COc1c(F)c(F)cc(F)c1F |  |  |  |  |  | 
25 | 25200 | 75 | 186000 | 542000 | 1.34e+06 | 50 | C[C@H](NC(=O)C(=O)Nc1ccccc1Br)C(=O)N[C@@H](CC(=O)O)C(=O)COc1c(F)c(F)cc(F)c1F |  |  |  |  |  | 
